# In patent US7605173B2, “Pharmaceutical liquid composition containing pyridone derivative” (KDL, Inc., priority 2002, dated 2009):
# Assays:
# [1] = Dissolving Pirfenidone in diethylene glycol monoethyl ether (attainable concentration); format: physicochemical; settings: solvent diethylene glycol monoethyl ether
# Experimental: That is, the diethylene glycol monoethyl ether was charged to a suitable container and warmed to 60° C. The Pirfenidone was added while stirring and a yellowish solution was obtained by continuing the stirring until the mixture was transparent. All the remaining ingredients as listed in Table 1 were dissolved in water at 60° C. and this solution was poured into the above Pirfenidone solution and the stirring was continued until mixed uniformly. The so obtained solution was protected from the light.
# That is, the diethylene glycol monoethyl ether was charged to a suitable container and warmed to 60° C., and the Pirfenidone was added while stirring and a yellowish solution was obtained by continuing the stirring until the whole became transparent. Furthermore, the α-tocopherol was added and water was added while stirring until mixed uniformly. Then, the hydroxypropyl cellulose was added because of its necessity and stirred until a homogenous dispersion was formed. Furthermore, the dispersion was allowed to stand overnight until the particles of hydroxypropyl cellulose, the concentrating agent, were expanded, and finally the product was homogenized. The so obtained dispersion was allowed to stand overnight and a solution in the desired concentration was obtained. The solution was homogenized again and protected from light.
# [2] = cited from earlier work
compound,measurement,setting,value
"Cc1ccc(=O)n(-c2ccccc2)c1 [Pirfenidone, 5-methyl-1-phenyl-2-(1H)-pyridone]",concentration of Pirfenidone that can be dissolved,[1],~25 % by weight
same,solubility in water,[2],slightly soluble in water
